Measurements taken from US5929082A, “Potassium ion channel blockers” (priority 1995, dated 1999).

Columns and labels:
[1] = system: MCF-7 human mammary carcinoma cells; conditions: concentration-dependent; Woodfork et al, 1995; read-out: IC50, inhibition of cell proliferation; cited from earlier work
[2] = Kinetic/metabolite studies: HPLC analysis of plasma after oral administration; format: in vivo, Sprague-Dawley rats; conditions: after oral administration, HPLC
Procedure: Plasma samples were collected in order to test the correlation of plasma drug (or metabolite) concentration with hypoglycaemic activity, and to determine whether compounds of the invention were converted in vivo into active metabolites. The plasma levels of test compounds or metabolites also give an indication of rate of metabolism and kinetics of drug action.
Blood samples collected from rats treated as above and collected at the same intervals were analysed using an ICI LC1150 HPLC system and a LC1210 UV detector at a wavelength of 227 nm. The HPLC system used a Merck LiChroCART 125-4 LiChrosphere 100 RP-18 HPLC and LiChrosphere 100 RP-18 guard columns. The mobile phase consisted of 70% acetonitrile and a 30% aqueous sodium phosphate buffer at pH 7.45 and was prepared using standard HPLC grade reagents and distilled water. To improve the resolution of peaks and separation of the compounds a gradient method was established where changes in the concentration of the required buffers and solvents, and the time at which these changes occur is outlined in Table 7. The volumes are expressed as percentages of the total flow rate, with the flow rate remaining constant at […].
The data were acquired using the WinChrom Data Management system and were calibrated using stock solutions of the test compounds and Glibenclamide as an internal standard dissolved in 100% methanol
Plasma (250 μL) collected from the rats were extracted into methanol (700 μL) and 50 μL of Glibenclamide (25 μg/ml). The mixture was then agitated with a vortex mixer for 15 sec and centrifuged for 10 min. The clear supernatant was then carefully aspirated for HPLC analysis.
The results are outlined in Table 8 and show retention times (minutes) for the compounds and their metabolites as analysed by HPLC after oral administration in Sprague-Dawley rats. […] Glibenclamide is shown for comparison only, none of the metabolites observed with the test compounds correspond to metabolites of Glibenclamide.

[3] = system: MCF-7 mammary carcinoma cells; test: Thymidine uptake ([methyl-3H] thymidine incorporation into DNA); format: cell-based, human; conditions: 100 μM (printed 100 μH / 100 mM), compared to control group; Glibenclamide n=3, Compound 1-24 n=4
Procedure: Incorporation of [methyl-3H] thymidine into DNA was measured as described by Murphy and Lazarus (1983), using MCF-7 mammary carcinoma cells treated with compound 1-24 (100 μH) and a control group. The growth medium from cells cultured as described in Example 24 was aspirated from the wells, and 1 mL of fresh growth medium containing 1 μCi [3H]-thymidine (Amersham) was added to each well After 4 hours incubation, the medium was aspirated and the monolayers were washed three times with ice cold phosphate buffered saline (ICN). This was followed by three washes with 10% (v/v) ice cold trichloroacetic acid, each of 5 minutes duration. After another three washes with absolute ethanol at room temperature of 5 minutes duration, the monolayer was dried at room temperature for 10 minutes. The monolayer was […] after incubation for 12 hours with 0.5 N NaOH and 1% Triton-X 100 (Sigma). An aliquot of the cell lysate was added to 10 ml of Ultima Gold (Packard) and counted using a liquid scintillation counter (Packard model 19006A).

[4] = Hypoglycaemic activity: change in blood glucose after oral gavage; format: in vivo, Sprague Dawley rats; conditions: 1.6 mg/kg oral gavage, normal fed male rats
Procedure: The biological activity of representative compounds of the invention was evaluated by means of several different tests. The activity of compounds of this invention as hypoglycaemic agents was measured and compared with the activity of the known compound of Example 1, using methods described in the literature. Thus normal, fed male Sprague Dawley rats weighing between 275 and 375 g were studied for changes in blood sugar levels and alterations to mean arterial blood pressure following administration of representative compounds of the invention suspended in a 5% solution of gum acacia by oral gavage at a dose of 1.6 mg/kg. The concentration of each compound was 4 mg in 10 ml, so that each rat received 1.1-1.5 ml to obtain the desired dose on a body weight basis. The blood sugar levels were recorded for each rat immediately prior to administration, and at 1, 2, and 3 hr following administration of the test compounds. Blood glucose levels were determined on blood samples taken from the tail, and analysed on an Ames blood glucometer, model 5626, and Ames, 2627 blood glucose strips (number 2). […] It is apparent that generally the heterocyclic sulphonylthioureas have greater activity than the sulphonylureas. Without wishing to be bound by any proposed mechanism for the observed effect, we believe that this may be associated with differences in lipid permeability.

[5] = design: species or system Sprague-Dawley rats; conditions: rat, in vivo, po
Procedure: Representative compounds were evaluated for their effect on glucose tolerance following oral administration at doses ranging from 0.005 mg/kg to 100 mg/kg. Normal male Sprague-Dawley rats were dosed with a test compound daily for five days, and were fasted overnight prior to days 1 and 5. Control animals were given ether vehicle only, or Glibenclamide (glyburide; N-[4-(β-)(2-methoxy-5-chlorobenzamido)ethyl)benzosulphonyl)-N'-cyclohexylurea]; 2 mg/kg/day). Blood was collected on day zero and on days one and five at 0, 0.5, 1, 1.5 and 2 hours after drug administration. Blood glucose concentrations were then measured in duplicate using standard glucose oxidase analysis. The samples were assayed using a Hitachi U-200 Spectrophotometer at a wavelength of 505 nm. The weight gain of each rat was also measured over the five day period, and all results were compared to both the negative control group (dosing with vehicle only) and the positive control group (dosing with Glibenclamide). […] Doses of drugs administered were minimised so as to reduce differences in weight gain whilst retaining hypoglycaemic activity. […]
Each point represents the effect of each dose on the rats glucose tolerance or ability to gain weight, expressed as a percentage of the control (normal) response (where control=100% response). […]

[6] = system: rat heart; conditions: 1 μM, rat heart stimulated at 5 Hz; Kantor et al, 1987; cited from earlier work
[7] = system: MCF-7 human mammary carcinoma cells; conditions: Woodfork et al, 1995, cited from earlier work

Compound in plasma [2]: no
weight gain over a five day period [5]: decreased their observed weight gain
Compound: COc1ccc(Cl)cc1C(=O)NCCc1ccc(S(=O)(=O)NC(=O)NC2CCCCC2)cc1 [Glibenclamide, reference compound]
IC50 [1]: 50 µM
inhibition of thymidine uptake [3]: significant inhibition
Change in Blood Glucose, 0 hours ([4]; 0 hours): 0.0 mmol/L
Change in Blood Glucose, 1 Hour ([4]; 1 hour): 0.6 mmol/L
Change in Blood Glucose, 2 Hours ([4]; 2 hours): -2.1 mmol/L
Change in Blood Glucose, 3 Hours ([4]; 3 hours): -2.4 mmol/L
effect on ischaemia-induced ventricular arrhythmias / K+ loss [6]: prevent or reduce ischaemia-induced ventricular arrhythmias
accumulation at the G0/G1 phase in cell cycle distribution [7]: statistically significant accumulation at the G0/G1 phase
cell-cycle arrest ([7]; inhibition of KATP channels): reversible cell-cycle arrest
